Assay results published in patent US10653688B2, “6-(6-membered heteroaryl and aryl)isoquinolin-3-yl carboxamides and preparation and use thereof” (Samumed, LLC, priority 2017, dated 2020).
Read-outs that look alike come from different tables or passages of the source.

Assays:
[1] = test system: Wnt activity (SW480 colon carcinoma cells stably expressing the Sp5-Luc reporter gene); assay: Wnt activity screening assay (Sp5-Luc reporter gene assay); format: cell-based, human; conditions: 36 to 48 hours
Text: The screening assay for Wnt activity is described as follows. Reporter cell lines can be generated by stably transducing cancer cell lines (e.g., colon cancer) or primary cells (e.g., IEC-6 intestinal cells) with a lentiviral construct that includes a Wnt-responsive promoter driving expression of the firefly luciferase gene.
SW480 colon carcinoma cells were transduced with a lentiviral vector expressing luciferase with a human Sp5 promoter consisting of a sequence of eight TCF/LEF binding sites. SW480 cells stably expressing the Sp5-Luc reporter gene and a hygromycin resistance gene were selected by treatment with 150 μg/mL of hygromycin for 7 days. These stably transduced SW480 cells were expanded in cell culture and used for all further screening activities. […] For Sp5-Luc reporter gene assays, the cells were plated at 4,000 cells/well in 384-well plates with a DMEM medium containing 1% fetal bovine serum, and 1% Penicillin-Streptomycin and incubated for 36 to 48 hours at 37° C. and 5% CO2. Following incubation, 15 μl of BriteLite Plus luminescence reagent (Perkin Elmer) was added to each well of the 384-well assay plates. The plates were placed on an orbital shaker for 2 min and then luminescence was quantified using the Envision (Perkin Elmer) plate reader. Readings were normalized to DMSO only treated cells, and normalized activities were utilized for EC50 calculations using the dose-response log (inhibitor) vs. response-variable slope (four parameters) nonlinear regression feature available in GraphPad Prism 5.0 (or Dotmatics).

[2] = test system: IL-6 in human peripheral blood mononuclear cells (huPBMCs); assay: IL-6 inhibition in LPS-stimulated human peripheral blood mononuclear cells (HTRF); format: cell-based; conditions: for EC50: LPS 50 ng/mL, 22 hours, IL-6 HTRF
Method: Human Peripheral Blood Mononuclear Cells:
Fresh Normal PB MNC (Catalog # PB001, AllCells, Alameda, Calif.) were shipped overnight at 4° C. and resuspended in Roswell Park Memorial Institute (RPMI) 1640 Medium, with GlutaMAX Supplement (Catalog #61870127, ThermoFisher Scientific, Waltham, Mass.) supplemented with 1% Penicillin-Streptomycin (Catalog #15140163, ThermoFisher Scientific, Waltham, Mass.) and 1% fetal bovine serum (FBS) (Catalog #16140089, ThermoFisher Scientific, Waltham, Mass.) assay media.
Fresh normal human peripheral blood mononuclear cells (huPBMCs) were resuspended in 1% FBS-RPMI assay media with 1% Penicillin-Streptomycin 1% to a cell concentration of 1×10e6 cells/mL. […] 50 ng/mL of Lipopolysaccharides from Escherichia coli 0111:B4 (Catalog # L5293-2ML, Sigma-Aldrich, St. Louis, Mo.) was added after 2 hours and cells were incubated for another 22 hours at 37° C.-5% CO2. After 22 hour incubation, a mixture of anti-IL6 XL665 and anti-IL-6 Cryptate diluted in reconstitution buffer (Catalog #62IL6PEC, Cisbio Inc., Bedford, Mass.) was added to each well. Following incubation for 3 hours at room temperature, Homogeneous Time-Resolved Fluorescence (HTRF) was measured using the Envision (Perkin Elmer, Shelton, Conn.) at 665 nm and […]. The ratio of fluorescence at 665 nm to 620 nm was used as a readout for IL-6 quantification. All samples were processed in duplicate. Readings were normalized to DMSO treated cells and normalized activities were utilized for EC50 calculations. EC50 was determined using software generated by Dotmatics Limited (Windhill Bishops Stortford Herts, UK) using the Levenberg-Marquardt 4 parameter fitting procedure with finite different gradients.

[3] = test system: SW480 colon carcinoma cells; assay: Cell viability assay (CellTiter-Glo); format: cell-based, human; conditions: four days, CellTiter-Glo
Method: SW480 colon carcinoma cells were transduced with a lentiviral vector expressing luciferase with a human Sp5 promoter consisting of a sequence of eight TCF/LEF binding sites. SW480 cells stably expressing the Sp5-Luc reporter gene and a hygromycin resistance gene were selected by treatment with 150 μg/mL of hygromycin for 7 days. These stably transduced SW480 cells were expanded in cell culture and used for all further screening activities.
For the Cell Viability Assays, the cells were plated at 2,000 cells/well in 384-well plates with a DMEM medium containing 1% fetal bovine serum, and 1% Penicillin-Streptomycin and incubated for […] at 37° C. and 5% CO2. Eight replicates of DMSO-treated cells served as controls and cells treated with compound were performed in duplicate.
After incubation, 10 μL of CellTiter-Glo (Promega) was added to each well allowed to incubate for approximately 12 minutes. This reagent “results in cell lysis and generation of a luminescent signal proportional to the amount of ATP present. The amount of ATP is directly proportional to the number of cells present in culture, in agreement with previous reports. The CellTiter-Glo Assay generates a “glow-type” luminescent signal, produced by the luciferase reaction (Promega.com)”.

[4] = target: recombinant DYRK1A kinase (Homo sapiens (Human), UniProt Q13627); assay: DYRK1A kinase assay (Ser/Thr 18 peptide Z-lyte, FRET)
[5] = test system: LL29 cells (primary human fibroblasts derived from IPF patients), α-smooth muscle actin; assay: Inhibition of fibrotic process: TGF-β1-treated primary human fibroblasts, αSMA staining; format: cell-based; conditions: for EC50: TGF-β1 20 ng/mL, 4 days, % cells positive for αSMA; for inhibition at 10 µM: read-out: percent inhibition at 10 μM (given for EC50 >10 μM), TGF-β1, αSMA, 10 μM;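 for all read-outs here: controls were TGF-β1-stimulated wells with DMSO vehicle as the positive reference and cells given DMSO alone as the negative reference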
recombinant GSK3β kinase = recombinant GSK3β kinase (Homo sapiens (Human), UniProt P49841); assay: GSK3β kinase assay (Ser/Thr 09 peptide Z-lyte, FRET); format: biochemical;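 note: FRET read-out as coumarin over fluorescein emission ratio, compounds incubated one hour at room temperature, IC50 from dose-response curve fit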
recombinant GSK3β kinase, sequence (P49841 whole entry): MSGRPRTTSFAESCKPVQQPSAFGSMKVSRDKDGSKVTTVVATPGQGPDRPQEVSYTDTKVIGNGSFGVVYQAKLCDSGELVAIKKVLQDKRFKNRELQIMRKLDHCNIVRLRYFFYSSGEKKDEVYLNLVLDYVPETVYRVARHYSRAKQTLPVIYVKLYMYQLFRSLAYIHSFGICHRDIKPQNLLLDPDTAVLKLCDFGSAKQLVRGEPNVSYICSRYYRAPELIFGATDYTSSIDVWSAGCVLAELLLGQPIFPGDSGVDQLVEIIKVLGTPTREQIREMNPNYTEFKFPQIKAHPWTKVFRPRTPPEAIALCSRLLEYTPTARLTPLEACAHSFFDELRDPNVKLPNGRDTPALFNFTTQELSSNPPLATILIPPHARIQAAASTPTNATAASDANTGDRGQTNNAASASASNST

[6] = DYRK1A kinase, head says EC50, method says IC50, ATP 30 μM
[7] = GSK3β kinase, head says EC50, method says IC50, ATP 46 μM

| SMILES | EC50 ([1]; Homo sapiens) [nM] | EC50 ([2]; Homo sapiens, PBMC) [nM] | inhibition at 10 µM ([2]; Homo sapiens, PBMC, read-out: percent inhibition at 10 μM (given for EC50 >10 μM), LPS, IL-6, 10 μM) [%] | EC50 ([3]; Homo sapiens, 96 h) [nM] | EC50 [4, 6] [nM] | EC50 ([5]; Homo sapiens, Fibroblast, 96 h) [nM] | inhibition at 10 µM ([5]; Homo sapiens, Fibroblast) [%] | EC50 (recombinant GSK3β kinase; [7]) [nM] | EC50 [4] [nM] | EC50 (recombinant GSK3β kinase) [nM] | EC50 [1] [nM] | EC50 [2] [nM] | EC50 [3] [nM] | EC50 [5] [nM] |
| --- | --- | --- | --- | --- | --- | --- | --- | --- | --- | --- | --- | --- | --- | --- |
| CN1CCN(CC(=O)Nc2cc3cc(-c4ccc(C(F)(F)F)nc4)ccc3cn2)CC1 [Compound 30, 2-(4-Methylpiperazin-1-yl)-N-(6-(6-(trifluoromethyl)pyridin-3-yl)isoquinolin-3-yl)acetamide] | 9690 | > 10000 | 5.2 | 8700 | > 10000 | > 10000 | 24.9 | > 10000 |  |  |  |  |  |  |
| COc1cncc(-c2ccc3cnc(NC(=O)c4ccnc(N5CCN(C)CC5)c4)cc3c2)c1 [Compound 34, N-(6-(5-Methoxypyridin-3-yl)isoquinolin-3-yl)-2-(4-methylpiperazin-1-yl) isonicotinamide] | 1040 | 2140 |  | 1190 | 4 | 507 |  | > 10000 |  |  |  |  |  |  |
| O=C(Nc1cc2cc(-c3cncc(OC4CCNCC4)c3)ccc2cn1)c1ccc(F)cc1 [Compound 35, 4-Fluoro-N-(6-(5-(piperidin-4-yloxy)pyridin-3-yl)isoquinolin-3-yl) benzamide] | 1380 | 1010 |  | 1160 | 10 | 2800 |  | > 10000 |  |  |  |  |  |  |
| Nc1cncc(-c2ccc3cnc(NC(=O)c4ccc(F)cc4)cc3c2)c1 [Compound 36, N-(6-(5-Aminopyridin-3-yl)isoquinolin-3-yl)-4-fluorobenzamide] | 379 | 1220 |  | 493 | 2 | 292 |  | 8860 |  |  |  |  |  |  |
| Nc1cncc(-c2ccc3cnc(NC(=O)c4ccc(OC5CCNCC5)cc4)cc3c2)c1 [Compound 37, N-(6-(5-Aminopyridin-3-yl)isoquinolin-3-yl)-4-(piperidin-4-yloxy) benzamide] | 109 | 662 |  | 81 | 1 | > 10000 | 39.5 | 4620 |  |  |  |  |  |  |
| CN1CCN(c2cc(C(=O)Nc3cc4cc(-c5cncc(N)c5)ccc4cn3)ccn2)CC1 [Compound 38, N-(6-(5-Aminopyridin-3-yl)isoquinolin-3-yl)-2-(4-methylpiperazin-1-yl) isonicotinamide] | 75 | 765 |  | 225 |  | 603 |  |  | 2 | > 10000 |  |  |  |  |
| CC(C)Nc1cncc(-c2ccc3cnc(NC(=O)C4CCN(CCF)CC4)cc3c2)n1 [Compound 89, 1-(2-Fluoroethyl)-N-(6-(6-(isopropylamino)pyrazin-2-yl)isoquinolin-3-yl) piperidine-4-carboxamide] |  |  |  |  |  |  |  | 14 |  |  | 178 | 390 | 447 | 3910 |
| CC(C)CCN1CCC(C(=O)Nc2cc3cc(-c4cncc(NC(C)C)n4)ccc3cn2)CC1 [Compound 91, 1-Isopentyl-N-(6-(6-(isopropylamino)pyrazin-2-yl)isoquinolin-3-yl) piperidine-4-carboxamide] |  |  |  |  |  |  |  |  |  |  | 718 | 446 | 6890 | 19 |
